Data: patent US20080306162A1, “Treatment of Inflammatory Disorders and Pain” (priority 2005, published 2008)

What was measured:
IL-10 = experiment: LPS mouse assay, serum IL-10 by ELISA; type: in vivo, Balb C ByJ mice; conditions: i.p. or oral 30 minutes before 1 mg/kg LPS i.p., serum 2 hours after LPS
Protocol: (§1) 7 week old Balb C ByJ mice (24-28 g) were administered, either by i.p. (5 ml/kg) or oral (10 ml/kg) administration, with vehicle or test article. 30 minutes later these animals were challenged with an intraperitoneal injection of 1 mg/kg LPS. 2 hours after LPS challenge blood samples were collected under light isoflurane anaesthesia into normal tubes by retro-orbital puncture. Samples were allowed to clot at room temperature and then spun at 6000 g for 3 min at 4° C. Serum was stored at −20° C. until use. Serum TNFα and IL-10 levels were analysed in duplicate by ELISA technique.

TNFα = experiment: LPS mouse assay, serum TNFα by ELISA; type: in vivo, Balb C ByJ mice; conditions: i.p. or oral 30 minutes before 1 mg/kg LPS i.p., serum 2 hours after LPS
Protocol: as §1

male Wistar rats = experiment: Carrageenan paw assay; type: in vivo; conditions: rat
Protocol: Fasted (18 hour) male Wistar rats (105-130 g) were weighed and a basal mercury plethysmometer reading was taken of the right hind paw by submerging the paw in the mercury up to the tibiotarsal joint. Subsequently, vehicles, reference items and test articles were administered by oral gavage (10 ml/kg). Half an hour after treatment, 0.1 ml of 2% carrageenan in 0.9% saline was injected into the subplanatar area of the right hind paw. The right paw was measured again with the plethysmometer at 1, 2, 3, 4 and 5 hours after carrageenan administration.

## CC(C)(CO)NCC(O)c1cc(Cl)c(N)c(Cl)c1 (racemic) [Example 1, 2-[2-(4-amino-3,5-dichlorophenyl)-2-hydroxyethylamino]-2-methylpropan-1-ol]
IL-10; 10 mg/kg
  IL-10 production potentiated: 417%
IL-10; 30 mg/kg
  IL-10 production potentiated: 392%
TNFα; 10 mg/kg
  inhibition of TNFα production: 60%
TNFα; 30 mg/kg
  inhibition of TNFα production: 61%

## CC(C)(CO)NCC(O)c1cc(Cl)c(N)c(Cl)c1 (single isomer, unassigned) [2-[2-(4-amino-3,5-dichlorophenyl)-2-hydroxyethylamino]-2-methylpropan-1-ol]
Male Wistar rats; 0.3 mg/kg oral gavage
  inhibition in the carageenan paw assay: 18%
Male Wistar rats; 1 mg/kg oral gavage
  inhibition in the carageenan paw assay: 28%
Male Wistar rats; 3 mg/kg oral gavage
  inhibition in the carageenan paw assay: 26%
Male Wistar rats; 10 mg/kg oral gavage
  inhibition in the carageenan paw assay: 59%
Male Wistar rats; 30 mg/kg oral gavage
  inhibition in the carageenan paw assay: 71%
Male Wistar rats; 0.3 to 30 mg/kg oral gavage
  anti-inflammatory dose response in the carageenan paw assay: clear anti-inflammatory dose response curve

## CC(C)(CO)NCC(O)c1ccccc1 (stereo not shown) [Example 2, 2-(2-phenyl-2-hydroxyethylamino)-2-methyl-propan-1-ol]
IL-10; 10 mg/kg
  IL-10 production potentiated: 345%
IL-10; 30 mg/kg
  IL-10 production potentiated: 366%
TNFα; 10 mg/kg
  inhibition of TNFα production: 47%
TNFα; 30 mg/kg
  inhibition of TNFα production: 58%

## CC(C)(CO)NCC(O)c1ccc(F)cc1 (stereo not shown) [Example 3, 2-[2-(4-fluorophenyl)-2-hydroxyethylamino]-2-methylpropan-1-ol]
IL-10; 10 mg/kg
  IL-10 production potentiated: 106%
IL-10; 30 mg/kg
  IL-10 production potentiated: 125%
TNFα; 10 mg/kg
  inhibition of TNFα production: 37%
TNFα; 30 mg/kg
  inhibition of TNFα production: 37%

## CC(C)Cc1ccc(C(C)C(=O)O)cc1 (stereo not shown) [Ibuprofen, reference compound]
Male Wistar rats; 100 mg/kg oral gavage
  anti-inflammatory in the carageenan paw assay: 38%
